{"source": "paper PMC9289672", "about": "“Optimization of Antibacterial Activity in Tibetan Swine α-Helix Peptide TP by Site-Directed Mutagenesis” (Frontiers in Microbiology, 2022)", "key": {"[1]": {"test_system": "IPEC-J2 and HEK 293T cells", "protocol": "(§5) The cytotoxicity of each peptide was assessed with IPEC-J12 and HEK 293T cells. […] Each trial was conducted two times in parallel. A total of three independent assays were carried out."}, "S. aureus 29213": {"test_system": "S. aureus 29213", "assay_type": "cell-based, Staphylococcus aureus", "conditions": "29213, 4 h", "method": "(§1) The salt and serum stability of polypeptides were determined by improved MIC method (Lv et al., [2014]). Peptides were incubated with BSA containing different final concentrations of salt ions (150 mM NaCl, 4.5 mM KCl, 6 μm NH4Cl, 8 μm ZnCl2, 1 mM MgCl2, 2 mM CaCl2, and 4 μm FeCl3) (Wang et al., [2018]). To determine the stability of the peptide in serum, peptide was incubated with different proportions of serum (50%, 100%) at 37°C for 4 h. The following steps are the same as those for antimicrobial activity. Each trial was conducted two times in parallel. A total of three independent assays were carried out."}, "E. coli 25922 [2]": {"test_system": "E. coli 25922", "assay_type": "cell-based, Escherichia coli", "conditions": "25922, 4 h", "method": "as §1"}, "all strains in Table 2": {"test_system": "all strains in Table 2", "experiment": "Geometric mean of MIC and therapeutic index", "assay_type": "cell-based", "conditions": "MHC/GM; 128 μm used when 50% hemolysis not observed at 128 μm", "method": "(§2) The bacteria were cultured overnight in the MHB medium and transferred to the new MHB the next day until the bacteria reached the exponential growth stage. The bacteria were diluted with MHB to 2 × 10^5 CFU/ml. About 50 μl of polypeptide and equal volume of bacterial suspension was added to a 96-well plate to give the final concentration of polypeptide between 1 and 128 μm. The last two columns are negative (MHB only) and positive (bacterial and MHB) controls and incubated at 37°C for 18–24 h. Optical density was measured at an absorbance wavelength of 492 nm using a microplate reader (Tecan GENios F129004, Tecan, Austria). At least three independent measurements were taken. Each trial was conducted two times in parallel. A total of three independent assays were carried out.\nTrp is a hydrophobic amino acid with aromatic side chains. It is a special amino acid in peptide design. Previous studies have pointed out that introducing amino acids will also bring toxicity while improving activity. Therefore, at the beginning of the design, we predicted that selecting Trp as hydrophobic amino acid to substitute H-H position would bring certain toxicity to the peptide. Thus, as expected, the introduction of Trp increases the activity and toxicity of these peptides. […] Meanwhile, the virulence of TP(i+4) 1&2&5&6 and TP(i+4) 1&2&6&7 was lower than that of TP(i+4) 1&2&5&7. We infer that the location of hydrophobic centers can effectively reduce peptide toxicity by Trp substitution. For further evaluating the cell selectivity of the peptides, we also calculated the SI which defined as the ratio of MHC to the geometric mean (GM) (Dufourc, [2008])."}, "[3]": {"test_system": "Salmonella typhimurium ATCC 14028", "source_text": "(§3) The bacteria strains Escherichia coli ATCC 25922, Escherichia coli UB1005, Salmonella typhimurium ATCC 14028, Salmonella typhimurium C7731, Pseudomonas aeruginosa ATCC 27853, Pseudomonas aeruginosa PAO1, Staphylococcus aureus ATCC 29213, Staphylococcus aureus ATCC 25923, Methicillin-resistant Staphylococcus aureus (MRSA) 43300, Enterococcus faecalis ATCC 29212, and Staphylococcus epidermidis ATCC 12228 were obtained from the College of Veterinary Medicine, Northeast Agricultural University (Harbin, China).\nas §2"}, "[4]": {"test_system": "Pseudomonas aeruginosa PAO1", "source_text": "as §3, §2"}, "[5]": {"test_system": "Escherichia coli ATCC 25922", "source_text": "as §3, §2"}, "[6]": {"test_system": "Staphylococcus aureus ATCC 25923", "source_text": "as §3, §2"}, "[7]": {"test_system": "Methicillin-resistant Staphylococcus aureus (MRSA) 43300", "conditions": "Methicillin-resistant 43300", "source_text": "as §3, §2"}, "[8]": {"test_system": "Pseudomonas aeruginosa ATCC 27853", "source_text": "as §3, §2"}, "Escherichia coli UB1005": {"test_system": "Escherichia coli UB1005", "conditions": "MHB, bacteria diluted to 2 × 10^5 CFU/ml, peptide 1-128 μm, 37°C 18-24 h, OD 492 nm; three independent assays, two in parallel", "source_text": "as §3, §2"}, "[9]": {"test_system": "Enterococcus faecalis ATCC 29212", "source_text": "as §3, §2"}, "[10]": {"test_system": "Staphylococcus epidermidis ATCC 12228", "source_text": "as §3, §2"}, "[11]": {"test_system": "Salmonella typhimurium C7731", "conditions": "MHB, bacteria diluted to 2 × 10^5 CFU/ml, peptide 1-128 μm, 37°C 18-24 h, OD 492 nm; three independent assays, two in parallel", "source_text": "as §3, §2"}, "[12]": {"test_system": "Staphylococcus aureus ATCC 29213", "source_text": "as §3, §2"}, "Gram-positive bacteria": {"test_system": "Gram-positive bacteria", "experiment": "Geometric mean of MIC and therapeutic index", "assay_type": "cell-based", "conditions": "MHC/GM; 128 μm used when 50% hemolysis not observed at 128 μm", "method": "as §2\n(§4) Trp is a hydrophobic amino acid with aromatic side chains. It is a special amino acid in peptide design. Previous studies have pointed out that introducing amino acids will also bring toxicity while improving activity. […] For further evaluating the cell selectivity of the peptides, we also calculated the SI which defined as the ratio of MHC to the geometric mean (GM) (Dufourc, [2008])."}, "Gram-negative bacteria": {"test_system": "Gram-negative bacteria", "experiment": "Geometric mean of MIC and therapeutic index", "assay_type": "cell-based", "conditions": "MHC/GM; 128 μm used when 50% hemolysis not observed at 128 μm", "method": "as §2, §4"}, "[13]": {"test_system": "hRBCs (human red blood cells)", "experiment": "Hemolytic activity", "conditions": "three independent assays, two in parallel", "protocol": "as §5"}, "E. coli 25922 [14]": {"test_system": "E. coli 25922", "experiment": "Drug resistance assessment (continuous culture at sub-MIC)", "assay_type": "cell-based, Escherichia coli", "conditions": "E. coli 25922, serial passage at sub-MIC", "method": "Continuous culture method was used to evaluate the drug resistance of peptides. Colistin was used as model antibiotic to test the resistance of E. coli 25922. First, minimum inhibitory concentration (MIC) was determined for peptide and Colistin Next, the bacteria with each sub-MIC concentration were diluted to 2 × 10^5 CFU/ml with MHB for the MIC determination of the next passage. The process was repeated 30 times."}, "E. coli 25922 [15]": {"test_system": "E. coli 25922", "experiment": "In vivo efficacy assay (peritonitis-sepsis model)", "conditions": "C57BL/6 mice, i.p. E. coli 25922; peptide 5 mg/kg i.p. at 0 and 1 h, colistin 1 mg/kg; 12 h after infection; vs infected group, p < 0.05", "method": "A total of 32 female C57BL/6 mice (weighing about 20 g) aged from 6 to 8 weeks were selected. The mice in each group were divided into 4 groups by blind method (n = 8): […] (d) treatment group (E. coli 25922 + Colistin). Mice in control group were intraperitoneally injected with 100 μl normal saline, and mice in other groups were intraperitoneally injected with 100 μl (~1 × 10^8 CFU/ml) diluted bacterial solution. The peptide treatment group was intraperitoneally injected with TP(i+4) 1&2&5 (5 mg/kg) at 0 and 1 h after infection, and the control group and antibiotic treatment group were injected with normal saline and colistin (1 mg/kg), respectively. The mice were then euthanized 12 h after infection. After weighing liver, lung, spleen, and kidney, the bacterial load of each organ was determined, and the histopathological changes in the organ sections were analyzed by H&E staining. Serum levels of inflammatory factors IL-6, IL-1β, and TNF-α were detected by ELISA kits (Shanghai Jinma)."}}, "note": "Where no end group is shown, it is not given here.", "data": [{"substance": "ASVVKKLWKGVWKLLK-NH2 [TP(i+4) 1&2&5]", "values": [{"measurement": "cell viability", "setting": "[1]", "result": "~ 50%"}, {"measurement": "MIC after incubation with 100% serum", "setting": "S. aureus 29213", "result": 8, "unit": "µM"}, {"measurement": "MIC in the presence of Ca2+", "setting": "S. aureus 29213", "result": 2, "unit": "µM"}, {"measurement": "MIC in the presence of Fe3+", "setting": "S. aureus 29213", "result": 2, "unit": "µM"}, {"measurement": "MIC in the presence of K+", "setting": "S. aureus 29213", "result": 1, "unit": "µM"}, {"measurement": "MIC in the presence of Mg2+", "setting": "S. aureus 29213", "result": 2, "unit": "µM"}, {"measurement": "MIC in the presence of NH4+", "setting": "S. aureus 29213", "result": 2, "unit": "µM"}, {"measurement": "MIC in the presence of Na+", "setting": "S. aureus 29213", "result": 2, "unit": "µM"}, {"measurement": "MIC in the presence of Zn2+", "setting": "S. aureus 29213", "result": 1, "unit": "µM"}, {"measurement": "MIC, Control", "setting": "S. aureus 29213", "result": 2, "unit": "µM"}, {"measurement": "MIC after incubation with 100% serum", "setting": "E. coli 25922 [2]", "result": 2, "unit": "µM"}, {"measurement": "MIC in the presence of Ca2+", "setting": "E. coli 25922 [2]", "result": 4, "unit": "µM"}, {"measurement": "MIC in the presence of Fe3+", "setting": "E. coli 25922 [2]", "result": 1, "unit": "µM"}, {"measurement": "MIC in the presence of K+", "setting": "E. coli 25922 [2]", "result": 2, "unit": "µM"}, {"measurement": "MIC in the presence of Mg2+", "setting": "E. coli 25922 [2]", "result": 2, "unit": "µM"}, {"measurement": "MIC in the presence of NH4+", "setting": "E. coli 25922 [2]", "result": 2, "unit": "µM"}, {"measurement": "MIC in the presence of Na+", "setting": "E. coli 25922 [2]", "result": 4, "unit": "µM"}, {"measurement": "MIC in the presence of Zn2+", "setting": "E. coli 25922 [2]", "result": 1, "unit": "µM"}, {"measurement": "MIC, Control", "setting": "E. coli 25922 [2]", "result": 1, "unit": "µM"}, {"measurement": "Therapeutic index (TI) / selectivity index (SI), All", "setting": "all strains in Table 2", "result": 64.00}, {"measurement": "MIC, S. typhimurium 14028", "setting": "[3]", "result": 2, "unit": "µM"}, {"measurement": "MIC, P. aeruginosa PAO1", "setting": "[4]", "result": 2, "unit": "µM"}, {"measurement": "MIC, E. coli 25922", "setting": "[5]", "result": 1, "unit": "µM"}, {"measurement": "MIC, S. aureus 25923", "setting": "[6]", "result": 2, "unit": "µM"}, {"measurement": "MIC, S. aureus 43300", "setting": "[7]", "result": 2, "unit": "µM"}, {"measurement": "MIC, P. aeruginosa 27853", "setting": "[8]", "result": 2, "unit": "µM"}, {"measurement": "MIC, E. coli UB1005", "setting": "Escherichia coli UB1005", "result": 2, "unit": "µM"}, {"measurement": "MIC, E. faecalis 29212", "setting": "[9]", "result": 2, "unit": "µM"}, {"measurement": "MIC, S. epidermidis 12228", "setting": "[10]", "result": 2, "unit": "µM"}, {"measurement": "MIC, S. typhimurium 7731", "setting": "[11]", "result": 4, "unit": "µM"}, {"measurement": "MIC, S. aureus 29213", "setting": "[12]", "result": 2, "unit": "µM"}, {"measurement": "Therapeutic index (TI), Gram-positive bacteria", "setting": "Gram-positive bacteria", "result": 64.00}, {"measurement": "Therapeutic index (TI), Gram-negative bacteria", "setting": "Gram-negative bacteria", "result": 64.00}, {"measurement": "MHC (concentration of peptide that causes hemolysis of 50% of human red blood cells)", "setting": "[13]", "result": ">128", "unit": "µM"}]}, {"substance": "Colistin", "values": [{"measurement": "generation at which resistance appeared", "setting": "E. coli 25922 [14]", "result": "sixth generation"}, {"measurement": "increase in MIC values after 30 generations", "setting": "E. coli 25922 [14]; 30 passages", "result": 256, "unit": "fold"}, {"measurement": "bacterial load in organs (liver, kidney, spleen, lungs)", "setting": "E. coli 25922 [15]", "result": "significantly reduced"}]}]}
